Test results as given in patent US20260137701A1, “CHOLESTENOIC ACID (CA) AND A SULFATED DERIVATIVE THEREOF, 3[BETA]-SULFATE-5-CHOLESTENOIC ACID (CA3S), AS ENDOGENOUS EPIGENETIC REGULATORS” (priority 2022, published 2026).

Columns and labels:
[1] = molecular target: recombinant DNMT1 (Homo sapiens, UniProt P26358); experiment: DNMT1 enzyme kinetic (activity) assay, 3H-SAM filter; assay type: biochemical
Protocol: (§1) The enzyme kinetic studies were carried out by Reaction Biology Company. For the DNMT1 activity assay, the substrate solution, 0.001 mg/ml Poly(dI-dC): Poly(dI-dC) in 50 mM Tris-HCl, pH 7.5, 50 mM NaCl, 5 mM EDTA, 5 mM DTT, 1 mM PMSF, 5% glycerol, 0.01% Brij™35, 1% DMSO was used. For the DNMT3a/3b activity assay, 0.0075 mg/ml Lambda DNA in 50 mM Tris-HCl, pH 7.5, 50 mM NaCl, 5 mM EDTA, 5 mM DTT, 1 mM PMSF, 5% glycerol, 1% DMSO, was used. The indicated DNMT1, DNMT3a and DNMT3b were added to the appropriate substrate solution and gently mixed. Amounts of CA ranging from 5.08E-09 to 0.0001 M in DMSO were added to the reaction mixture by using Acoustic Technology (Echo® 550, LabCyte Inc. Sunnyvale, CA). The mixtures were first incubated for 15 min, then ^3H-SAM was added to the reaction mixture to initiate the reaction, and the mixture was incubated for 60 min at 30° C. Following incubation, the reaction mixture was finally transferred to filter-paper for detection of radioactivity counts.

[2] = molecular target: recombinant DNMT3a (Homo sapiens, UniProt Q9Y6K1); experiment: DNMT3a enzyme kinetic (activity) assay, 3H-SAM filter; assay type: biochemical; conditions: read-out: IC50, inhibits DNMT3a activity
Protocol: as §1

[3] = test system: NAFLD mouse model; experiment: western diet-induced NAFLD mice model, health and serum enzymes; assay type: in vivo; conditions: 10 mg/kg CA injection, two weeks
From the text: The animal studies were approved by the Institutional Animal Care and Use Committee of McGuire Veterans Affairs Medical Center and conducted in accordance with the Declaration of Helsinki, the Guide for the Care and Use of Laboratory Animals, and all applicable regulations. In this study, a western diet-induced nonalcoholic fatty liver disease (NAFLD) mice model was used. To create the model, eight-week-old C57BL/6J female mice were purchased from the Jackson Laboratory and fed a western diet (TD.88137, Envigo) along with high glucose/fructose water (WDSW) containing 23.1 g/L fructose and 18.9 g/L glucose for 12 weeks. After establishing the model, the mice were separated into three groups based on their weight. For the control mice in each group, they received intravenous injection (IV) with vehicle (DMSO). In contrast, the treatment group mice were intravenously injected with 10 mg/kg of CA (dissolved in DMSO) with a total volume of less than 100 μl. During the treatment period, injections were administered every two days. All mice were housed under identical conditions in an aseptic facility with a 12-hour light/12-hour dark cycle and provided with free access to water and food (WDSW). Before scarification, the mice fasted overnight. Blood samples were collected, and the serum enzymatic activities of alkaline phosphatase (ALK), alanine aminotransferase (ALT), and aspartate aminotransferase (AST) were measured in the clinical laboratory at McGuire Veterans Affairs Medical Center.

[4] = test system: AMPK; experiment: Western blot analysis of AMPK protein; assay type: cell-based, human; conditions: HepG-2, high glucose media, 20 μM CA, 24 hours
Protocol: Specific proteins were analyzed by western blot. The proteins were extracted using M-PER™ Mammalian Protein Extraction Reagents (Fisher Scientific). For each sample, 20 μg of proteins were separated on 8%-12% SDS polyacrylamide gel electrophoresis (SDS-PAGE) gels. Electrophoresis was performed at 100V for 15 min and 200V for another 25 min in a Bio-Rad mini-gel system. After electrophoresis, samples were transferred onto a polyvinylidene difluoride (PVDF) membrane at 30V for 50 min. The specific proteins on the membrane were detected by incubation with anti-AMPKα1/2 (Santa Cruz Biotechnologies) primary antibody at 4° C. overnight, followed by further incubation with an appropriate horseradish peroxidase (HRP)-conjugated secondary antibody (Bio-Rad) at room temperature for 1 hr. Each positive band was quantified by Advanced Image Data Analyzer (Aida, Straubenhardt, Germany).

[5] = test system: HepG-2 cells; experiment: RT-qPCR of genes of lipid metabolism and calcium signaling; assay type: cell-based, human; conditions: concentration and time dependent
Protocol: After culturing HepG-2 cells in DMEM medium with HG for 72 hours followed by treating with 20 μM CA for 0, 3, 6, 12, and 24 hours, genomic DNA from 5×10^7 cells were extracted using QIAamp® DNA Mini Kit (QIAGEN, Hilden, Germany). Each sample, 6 μg, was sent to CD Genomics Co., Ltd (New York, USA) for analysis of WGBS. Total RNA was isolated using the Promega SV total RNA isolation system (Madison, WI, USA) with DNase treatment. Each sample, 2 μg, were sent to CD Genomics Co., Ltd (New York, USA) for analysis of RNA sequencing. The same samples, 2 μg, was used for the first-strand cDNA synthesis as recommended by the manufacturer (Invitrogen, Carlsbad, CA). RT-qPCR was performed using SYBR Green as the indicator on ABI 7500 Fast Real-Time PCR System (Applied Biosystems, Foster City, CA). Amplifications of j-actin or GAPDH were used as internal controls. Relative messenger RNA (mRNA) expression was quantified with the comparative cycle threshold (Ct) method using a sutiable primer set and was expressed as 2-ΔΔCt as described previously.

[6] = test system: HepG-2 cells; experiment: HepG-2 cell death; assay type: cell-based, human
[7] = test system: Hep G2 cells; assay type: in vitro ADME, human; conditions: human, 24 h
From the text: Mitochondrial oxysterols, including cholestenoic acid (CA), 25-hydroxycholesterol (25HC), and 27-hydroxycholesterol (27HC), are potent regulators involved in important biological events such as lipid metabolism and inflammatory responses. However, their intracellular catabolic pathways have not been fully explored. In this study, we investigated the metabolic pathways of these oxysterols and their roles in the communication between hepatocytes and macrophages.

Sequence of recombinant DNMT1 (P26358 whole entry): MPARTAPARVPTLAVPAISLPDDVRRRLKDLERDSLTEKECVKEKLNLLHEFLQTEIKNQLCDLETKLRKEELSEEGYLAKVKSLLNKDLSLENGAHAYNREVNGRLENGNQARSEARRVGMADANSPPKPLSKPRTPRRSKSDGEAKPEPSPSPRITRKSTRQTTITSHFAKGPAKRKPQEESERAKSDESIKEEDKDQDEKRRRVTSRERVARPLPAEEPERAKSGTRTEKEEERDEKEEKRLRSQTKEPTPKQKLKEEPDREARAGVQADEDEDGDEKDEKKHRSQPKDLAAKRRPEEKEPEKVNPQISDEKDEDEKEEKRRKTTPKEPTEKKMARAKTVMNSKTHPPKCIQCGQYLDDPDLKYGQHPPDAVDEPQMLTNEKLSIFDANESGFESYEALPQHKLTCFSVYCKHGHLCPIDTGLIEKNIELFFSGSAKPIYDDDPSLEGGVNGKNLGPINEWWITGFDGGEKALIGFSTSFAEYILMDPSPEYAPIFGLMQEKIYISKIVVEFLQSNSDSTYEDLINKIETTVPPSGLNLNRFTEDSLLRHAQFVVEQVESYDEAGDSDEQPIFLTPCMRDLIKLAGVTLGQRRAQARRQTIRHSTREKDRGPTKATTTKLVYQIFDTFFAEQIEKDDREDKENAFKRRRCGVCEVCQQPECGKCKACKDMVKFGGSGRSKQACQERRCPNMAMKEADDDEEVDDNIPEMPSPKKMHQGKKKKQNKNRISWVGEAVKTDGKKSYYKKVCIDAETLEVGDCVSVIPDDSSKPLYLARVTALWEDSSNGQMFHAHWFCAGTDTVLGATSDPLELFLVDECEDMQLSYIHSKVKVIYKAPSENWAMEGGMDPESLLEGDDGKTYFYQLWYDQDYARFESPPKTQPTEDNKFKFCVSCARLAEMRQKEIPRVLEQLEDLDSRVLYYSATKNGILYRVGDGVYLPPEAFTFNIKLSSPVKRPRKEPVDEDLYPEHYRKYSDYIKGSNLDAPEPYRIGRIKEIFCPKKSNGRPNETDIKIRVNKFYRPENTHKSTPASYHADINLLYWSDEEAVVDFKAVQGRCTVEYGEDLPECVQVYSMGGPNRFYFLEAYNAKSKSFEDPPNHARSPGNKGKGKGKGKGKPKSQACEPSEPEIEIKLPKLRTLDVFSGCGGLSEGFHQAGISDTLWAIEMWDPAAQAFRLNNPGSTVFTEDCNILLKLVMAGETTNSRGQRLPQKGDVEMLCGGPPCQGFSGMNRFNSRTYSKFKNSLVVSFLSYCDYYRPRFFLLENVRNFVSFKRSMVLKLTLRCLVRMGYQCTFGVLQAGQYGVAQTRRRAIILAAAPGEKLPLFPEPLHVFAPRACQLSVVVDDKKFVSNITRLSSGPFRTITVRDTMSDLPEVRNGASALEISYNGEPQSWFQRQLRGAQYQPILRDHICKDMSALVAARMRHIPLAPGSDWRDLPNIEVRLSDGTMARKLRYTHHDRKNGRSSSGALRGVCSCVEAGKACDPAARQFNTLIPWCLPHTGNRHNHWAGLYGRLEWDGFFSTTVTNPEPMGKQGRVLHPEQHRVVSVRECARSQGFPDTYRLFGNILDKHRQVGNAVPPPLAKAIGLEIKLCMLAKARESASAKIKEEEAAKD
Sequence of recombinant DNMT3a (Q9Y6K1 whole entry, looked up): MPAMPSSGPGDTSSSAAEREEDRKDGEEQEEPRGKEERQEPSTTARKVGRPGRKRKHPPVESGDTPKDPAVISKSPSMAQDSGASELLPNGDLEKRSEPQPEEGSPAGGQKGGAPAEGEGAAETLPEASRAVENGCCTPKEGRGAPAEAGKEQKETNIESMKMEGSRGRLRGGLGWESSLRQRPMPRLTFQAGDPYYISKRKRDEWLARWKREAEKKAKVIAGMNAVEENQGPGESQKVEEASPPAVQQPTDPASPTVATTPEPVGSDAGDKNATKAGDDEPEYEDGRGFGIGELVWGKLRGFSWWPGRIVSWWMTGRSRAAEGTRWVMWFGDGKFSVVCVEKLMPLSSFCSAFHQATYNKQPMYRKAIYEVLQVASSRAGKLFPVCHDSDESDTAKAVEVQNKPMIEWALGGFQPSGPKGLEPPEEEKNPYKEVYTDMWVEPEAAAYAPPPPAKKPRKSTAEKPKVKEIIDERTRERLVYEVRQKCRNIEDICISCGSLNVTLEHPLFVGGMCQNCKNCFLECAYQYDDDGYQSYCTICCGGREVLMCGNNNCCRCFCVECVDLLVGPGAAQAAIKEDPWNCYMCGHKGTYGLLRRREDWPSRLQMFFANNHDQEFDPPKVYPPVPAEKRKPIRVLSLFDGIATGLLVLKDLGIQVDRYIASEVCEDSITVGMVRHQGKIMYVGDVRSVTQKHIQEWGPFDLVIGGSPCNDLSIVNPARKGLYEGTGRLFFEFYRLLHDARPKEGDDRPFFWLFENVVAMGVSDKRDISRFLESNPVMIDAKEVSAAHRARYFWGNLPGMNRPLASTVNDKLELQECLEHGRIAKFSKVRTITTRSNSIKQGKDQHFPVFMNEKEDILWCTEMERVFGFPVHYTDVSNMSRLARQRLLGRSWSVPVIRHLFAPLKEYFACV

CC(CCC[C@@H](C)[C@H]1CC[C@H]2[C@@H]3CC=C4C[C@@H](O)CC[C@]4(C)[C@H]3CC[C@]12C)C(=O)O (stereo partly drawn) [CA, 3β-hydroxy-5-cholestenoic acid]
IC50 ([1]; at higher concentration, read-out: IC50, inhibits DNMT1 activity): 9.13 µM | EC50 ([1]; at low concentration, mean±SD, n=3, read-out: EC50, activates DNMT1): 1.99 µM | IC50 [2]: 8.41 µM | in vivo toxicity, health of mice [3]: remained in good health | serum activity of ALK [3]: significant decrease | serum activity of ALT [3]: significant decrease | protein levels of AMPK [4]: significantly increased | levels of mRNA encoding FAS ([5]; 0-20 μM CA 6 hours): decreased | levels of mRNA encoding HMGR ([5]; 0-20 μM CA 6 hours): decreased | levels of mRNA encoding PCSK9 ([5]; 0-20 μM CA 6 hours): decreased | expression of CACNA1D [5]: up-regulated | expression of CACNA1H [5]: up-regulated | expression of CAMK2B [5]: up-regulated | HepG-2 cell death [6]: induces HepG-2 cell death | maximum of novel molecular ion m/z 495 (CA3S) formed from CA [7]: 90%
